Legend:
[1] = tested on: mitochondrial membrane potential of C. elegans young adults; experiment: Mitochondrial membrane potential measurement; assay type: in vivo, Caenorhabditis elegans; conditions: 100 μM; 24 h
Method: After 24 h, the compounds were washed away. Then, the mitochondrial membrane potential was measured using a specialized fluorescent dye (kit MAK147, Sigma-Aldrich). The kit was used according to the manufacturer’s instructions with modified incubation temperature and time (20 °C, 4 h) to account for the fact that living intact worms were used instead of cell cultures. , Dyed worms (approximately 200 per well) were distributed onto a black 96-well plate, and the fluorescence was measured using a Tecan Infinite 200 Pro plate reader.
Determining the mechanism of action of compounds is always challenging; however, the nature of their effect, as well as the structural similarity to compounds with known properties, can provide useful insights. One of our hypotheses was that the compounds might interfere with energy production. We based this assumption on the behavior of compound-treated worms (delayed development, lower fecundity, and relatively rapid decrease in motility rates but not necessarily death). Impaired mitochondrial function would be accompanied by a decrease in mitochondrial membrane potential (MMP).

[2] = tested on: C. elegans MCII mutant RP2699; experiment: Acute motility of young adults on WMicrotracker ONE; assay type: in vivo, Caenorhabditis elegans; conditions: 100 μM; 24 h
Method: (§1) The effect of compounds on C. elegans N2 and SDH mutant strains was measured in a similar manner. Briefly, for evaluation of the acute effect of the compounds, age-synchronized young adults of each strain, kept in S complete medium supplemented with E. coli OP50 (3 mg/mL, fresh weight), were transferred onto microtiter plates (96-well, U bottom), and their initial motility was measured for 30 min. […] Afterward, the compounds were washed away, and worms, supplemented with fresh liquid media and food, were distributed onto 96-well plates and allowed to recover. Their activity was measured using WMicrotracker ONE at the indicated time points.
(§2) To experimentally support this promising initial finding, we tested the effect of i-19 against several C. elegans MCII mutant strains. These nematodes carry point mutations that result in amino acid changes in regions of subunits SDHC and SDHD that contribute to the formation of the ubiquinone-binding pocket, thereby influencing its shape and the ability of inhibitors to interact with the protein. […] The compounds were tested in multiple setups. At first, young adults were exposed to higher doses (100, 50, and 10 μM) of the compounds for up to 48 h, and changes in motility were evaluated using WMicrotracker. For both compounds, we observed a less pronounced decrease in movement rates of MCII mutants compared to wild-type worms, in both a dose- and time-dependent manner (Figure ).

[3] = tested on: C. elegans MCII mutant RP2700; experiment: as above; assay type: in vivo, Caenorhabditis elegans; conditions: 100 μM; 24 h
Method: as §1, §2

[4] = tested on: C. elegans MCII mutant RP2702; experiment: as above; assay type: in vivo, Caenorhabditis elegans; conditions: 100 μM; 24 h
Method: as §1, §2

C. elegans wild-type N2 = experiment: as above; assay type: in vivo, Caenorhabditis elegans; conditions: 100 μM; 24 h
Method: as §1, §2

C. elegans N2 = experiment: Scoring of developmental rates, L1 exposed 5 days; assay type: in vivo, Caenorhabditis elegans
Source text: (§3) Dead or mostly immobile worms, arrested at the L1 stage, received a score of 1. Populations with severely delayed development were scored as 2. More developmentally advanced, but still obviously delayed worms were given the score of 3. Adult worms that produce a noticeably lower number of progeny received a score of 4. Healthy worms that reproduce normally (i.e., hundreds of eggs and larvae are present) were scored as 5 (see Figure C for representative images). In a typical, correctly prepared experiment, vehicle-treated populations should receive a score of 5, while worms treated with ivermectin (positive control) should receive a score of 1. […]

[5] = tested on: C. elegans complex II mutant RP2699; experiment: Scoring of developmental rates, L1 exposed 5 days; assay type: in vivo, Caenorhabditis elegans
Source text: as §3

[6] = tested on: C. elegans complex II mutant RP2700; experiment: Scoring of developmental rates, L1 exposed 5 days; assay type: in vivo, Caenorhabditis elegans
Source text: as §3

[7] = tested on: C. elegans complex II mutant RP2702; experiment: Scoring of developmental rates, L1 exposed 5 days; assay type: in vivo, Caenorhabditis elegans
Source text: as §3

[8] = tested on: C. elegans wild-type and MCII mutant strains; experiment: Scoring of developmental rates, comparison of strains; assay type: in vivo, Caenorhabditis elegans; conditions: L1 exposed 5 days
Source text: Dead or mostly immobile worms, arrested at the L1 stage, received a score of 1. Populations with severely delayed development were scored as 2. More developmentally advanced, but still obviously delayed worms were given the score of 3. Adult worms that produce a noticeably lower number of progeny received a score of 4. Healthy worms that reproduce normally (i.e., hundreds of eggs and larvae are present) were scored as 5 (see Figure C for representative images). In a typical, correctly prepared experiment, vehicle-treated populations should receive a score of 5, while worms treated with ivermectin (positive control) should receive a score of 1.
We attribute this discrepancy to methodological differences: in previous studies, earlier larval stages, longer exposure times, and different evaluation methods, possibly more sensitive than WMicrotracker, were used.

[9] = tested on: C. elegans wild-type and MCII mutants; experiment: Recovery of pretreated worms on WMicrotracker ONE; assay type: in vivo, Caenorhabditis elegans; conditions: 5 or 10 μM for 72 h, then wash-out and recovery
Method: as §1, with “Briefly,” for “The effect of compounds on C. elegans N2 and SDH mutant strains was measured in a similar manner. Briefly,”
C. elegans L1 larvae were exposed to 5 or 10 μM of the compounds for 72 h, after which the compounds were washed away, and the recovery of the nematodes was evaluated using WMicrotracker.

wild-type C. elegans = tested on: wild-type C. elegans; parameters: method as in previously published data; conditions: earlier larval stages, longer exposure times; ref previously published data; cited from earlier work

O=C(NCCc1ncc(C(F)(F)F)cc1Cl)c1ccccc1C(F)(F)F [fluopyram, reference compound]
MMP signal lower than in vehicle-treated control animals [1]: ~85%
decrease of mean activity counts [2]: 53%
decrease of mean activity counts [3]: 16%
decrease of mean activity counts [4]: 28%
decrease of mean activity counts (C. elegans wild-type N2): 60%
mean score (1-5) (C. elegans N2; 0.012 µM): 4.667
mean score (1-5) (C. elegans N2; 0.024 µM): 4.333
mean score (1-5) (C. elegans N2; 0.049 µM): 3.667
mean score (1-5) (C. elegans N2; 0.195 µM): 2.778
mean score (1-5) (C. elegans N2; 0.391 µM): 2
mean score (1-5) (C. elegans N2; 0.781 µM): 1
mean score (1-5) (C. elegans N2; 1.563 µM): 1
mean score (1-5) (C. elegans N2; 3.125 µM): 1
mean score (1-5) (C. elegans N2; 6.25 µM): 1
mean score (1-5) (C. elegans N2; 12.5 µM): 1
mean score (1-5) (C. elegans N2; 25 µM): 1
mean score (1-5) (C. elegans N2; 50 µM): 1
mean score (1-5) (C. elegans N2; 100 µM): 1
mean score (1-5) ([5]; 0.012 µM): 4.667
mean score (1-5) ([5]; 0.024 µM): 4.444
mean score (1-5) ([5]; 0.049 µM): 4
mean score (1-5) ([5]; 0.195 µM): 4.556
mean score (1-5) ([5]; 0.391 µM): 4.444
mean score (1-5) ([5]; 0.781 µM): 3.889
mean score (1-5) ([5]; 1.563 µM): 3.111
mean score (1-5) ([5]; 3.125 µM): 3.333
mean score (1-5) ([5]; 6.25 µM): 1.222
mean score (1-5) ([5]; 12.5 µM): 1
mean score (1-5) ([5]; 25 µM): 1
mean score (1-5) ([5]; 50 µM): 1.222
mean score (1-5) ([5]; 100 µM): 1
mean score (1-5) ([6]; 0.012 µM): 5
mean score (1-5) ([6]; 0.024 µM): 5
mean score (1-5) ([6]; 0.049 µM): 5
mean score (1-5) ([6]; 0.195 µM): 4.778
mean score (1-5) ([6]; 0.391 µM): 4.444
mean score (1-5) ([6]; 0.781 µM): 3.556
mean score (1-5) ([6]; 1.563 µM): 3.667
mean score (1-5) ([6]; 3.125 µM): 2.444
mean score (1-5) ([6]; 6.25 µM): 1.222
mean score (1-5) ([6]; 12.5 µM): 1
mean score (1-5) ([6]; 25 µM): 1.333
mean score (1-5) ([6]; 50 µM): 1
mean score (1-5) ([6]; 100 µM): 1
mean score (1-5) ([7]; 0.012 µM): 5
mean score (1-5) ([7]; 0.024 µM): 5
mean score (1-5) ([7]; 0.049 µM): 5
mean score (1-5) ([7]; 0.195 µM): 4.889
mean score (1-5) ([7]; 0.391 µM): 4.667
mean score (1-5) ([7]; 0.781 µM): 4.111
mean score (1-5) ([7]; 1.563 µM): 3.556
mean score (1-5) ([7]; 3.125 µM): 3.111
mean score (1-5) ([7]; 6.25 µM): 2.333
mean score (1-5) ([7]; 12.5 µM): 1
mean score (1-5) ([7]; 25 µM): 1
mean score (1-5) ([7]; 50 µM): 1
mean score (1-5) ([7]; 100 µM): 1
concentrations at which all strains were severely affected [8]: > 6.25 µM
resistance of MCII mutants compared to wild-type [9]: increased resistance of the MCII mutants
concentrations that strongly affect wild-type C. elegans (wild-type C. elegans): below 1 μM
